Measurements reported in US9738634B2, “Heterocyclic amide compound and herbicide” (SYNGENTA PARTICIPATIONS AG, priority 2013, dated 2017).

How the values were obtained:
Type in all cases: in vivo
fig-leafed goosefoot [1] = experiment: Test Example 3: weedkilling efficacy through soil treatment; M: fig-leafed goosefoot; conditions: treatment dosage 315 g/ha
Procedure, shortened: (§1)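 Crop and weed responses were judged three weeks after a uniform surface spray of the water-diluted emulsion at the given g/ha rate. Seeds sat beneath about 1.5 cm of sterilized diluvial soil, and boxes stood in a greenhouse at 25 to 30° C.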

corn [2] = experiment: Test Example 3: soil treatment, effect on crop; c: corn; conditions: treatment dosage 315 g/ha
Procedure, shortened: as §1

beet [3] = experiment: Test Example 4: foliar treatment, effect on crop; f: beet; conditions: treatment dosage 315 g/ha
Procedure, shortened: (§2)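 Seeds are spot-sown into sterilized diluvial soil and covered with about 1.5 cm of soil. After 14 days' greenhouse growth at 25 to 30° C, plants are sprayed on stems and leaves with diluted emulsion at the stated g/ha rate, then scored at 3 weeks.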

bulrush [4] = experiment: Test Example 2: weedkilling efficacy, growth period weed treatment in the submerged state; B: bulrush; conditions: treatment dosage 252 g/ha
Procedure, shortened: (§3)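 First, alluvial soil in pots is flooded to 4 cm and mixed seed is sown. Next, plants grow in a greenhouse at 25 to 30° C until the 1-2 leaf stage. Then diluted emulsion is applied onto the water surface at the given g/ha rate, and injury is assessed after 3 weeks.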

oval-leafed pondweed [5] = experiment: Test Example 1: weedkilling efficacy, preemergent weed treatment in the submerged state; C: oval-leafed pondweed; conditions: treatment dosage 252 g/ha
Procedure, shortened: (§4)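 Emulsion diluted with water to the specified per-hectare dosage is applied onto flood water (4 cm) over alluvial soil on the sowing day, with barnyard grass, bulrush and pondweed seeded and rice (2.5-leaf) transplanted; plants grow at 25–30 °C and are rated at 3 weeks.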

crabgrass [6] = experiment: Test Example 3: weedkilling efficacy through soil treatment; D: crabgrass; conditions: treatment dosage 315 g/ha
Procedure, shortened: as §1

Indian mallow [7] = experiment: Test Example 4: weedkilling efficacy by foliar treatment; K: Indian mallow; conditions: treatment dosage 315 g/ha
Procedure, shortened: as §2

wheat [8] = experiment: Test Example 4: foliar treatment, effect on crop; e: wheat; conditions: treatment dosage 315 g/ha
Procedure, shortened: as §2

transplanted rice = experiment: Test Example 1: preemergent weed treatment in the submerged state, effect on crop; a: transplanted rice; conditions: treatment dosage 252 g/ha
Procedure, shortened: as §4

chickweed [9] = experiment: Test Example 4: weedkilling efficacy by foliar treatment; N: chickweed; conditions: treatment dosage 315 g/ha
Procedure, shortened: as §2

Italian ryegrass [10] = experiment: Test Example 4: weedkilling efficacy by foliar treatment; I: Italian ryegrass; conditions: treatment dosage 315 g/ha
Procedure, shortened: as §2

green foxtail [11] = experiment: Test Example 3: weedkilling efficacy through soil treatment; E: green foxtail; conditions: treatment dosage 315 g/ha
Procedure, shortened: as §1

wild oat [12] = experiment: Test Example 3: weedkilling efficacy through soil treatment; G: wild oat; conditions: treatment dosage 315 g/ha
Procedure, shortened: as §1

bulrush [13] = experiment: Test Example 1: weedkilling efficacy, preemergent weed treatment in the submerged state; B: bulrush; conditions: treatment dosage 252 g/ha
Procedure, shortened: as §4

redroot pigweed [14] = experiment: Test Example 4: weedkilling efficacy by foliar treatment; L: redroot pigweed; conditions: treatment dosage 315 g/ha
Procedure, shortened: as §2

barnyard grass [15] = experiment: Test Example 2: weedkilling efficacy, growth period weed treatment in the submerged state; A: barnyard grass; conditions: treatment dosage 252 g/ha
Procedure, shortened: as §3

wheat [16] = experiment: Test Example 3: soil treatment, effect on crop; e: wheat; conditions: treatment dosage 315 g/ha
Procedure, shortened: as §1

corn [17] = experiment: Test Example 4: foliar treatment, effect on crop; c: corn; conditions: treatment dosage 315 g/ha
Procedure, shortened: as §2

wild oat [18] = experiment: Test Example 4: weedkilling efficacy by foliar treatment; G: wild oat; conditions: treatment dosage 315 g/ha
Description: Testing of Weedkilling Efficacy by Foliar Treatment
Sterilized diluvial soil was introduced into 21 cm long, 13 cm wide, 7 cm deep plastic boxes, and seeds of crabgrass, green foxtail, barnyard grass, wild oat, black-grass, Italian ryegrass, common wind-grass, Indian mallow, redroot pigweed, fig-leafed goosefoot, chickweed, catchweed, birds-eye speedwell, corn, soybean, rice, wheat, beet and rapeseed were each spot-sown, and covered with about 1.5 cm of soil, then the plants were grown in a greenhouse at 25 to 30° C.
After they had grown for 14 days, emulsions of compounds of the present invention prepared according to compounding example 2 were diluted with water to give the specified dosages, and applied uniformly onto the stem and leaf parts with a small sprayer. 3 weeks after the pesticide treatment the effect on each type of plant was investigated on the basis of the assessment criteria of test example 1.
A: barnyard grass, B: bulrush, C: oval-leafed pondweed, D: crabgrass, E: green foxtail, F: barnyard grass, G: wild oat, H: black-grass, I: Italian ryegrass, J: common wind-grass, K: Indian mallow, L: redroot pigweed, M: fig-leafed goosefoot, N: chickweed, O: catchweed, p: birds-eye speedwell, a: transplanted rice, b: directly sown rice, c: corn, d: soybean, e: wheat, f: beet, g: rapeseed
Further, pesticide dosage (g/ha) indicates the concentration regulated such that treatment was with only the stated number of grams (g), when calculated per hectare (ha).

catchweed [19] = experiment: Test Example 3: weedkilling efficacy through soil treatment; O: catchweed; conditions: treatment dosage 315 g/ha
Procedure, shortened: as §1

Italian ryegrass [20] = experiment: Test Example 3: weedkilling efficacy through soil treatment; I: Italian ryegrass; conditions: treatment dosage 315 g/ha
Procedure, shortened: as §1

chickweed [21] = experiment: Test Example 3: weedkilling efficacy through soil treatment; N: chickweed; conditions: treatment dosage 315 g/ha
Procedure, shortened: as §1

soybean [22] = experiment: Test Example 3: soil treatment, effect on crop; d: soybean; conditions: treatment dosage 315 g/ha
Procedure, shortened: as §1

barnyard grass [23] = experiment: Test Example 1: weedkilling efficacy, preemergent weed treatment in the submerged state; A: barnyard grass; conditions: treatment dosage 252 g/ha
Procedure, shortened: as §4

black-grass [24] = experiment: Test Example 3: weedkilling efficacy through soil treatment; H: black-grass; conditions: treatment dosage 315 g/ha
Procedure, shortened: as §1

birds-eye speedwell = experiment: Test Example 3: weedkilling efficacy through soil treatment; p: birds-eye speedwell; conditions: treatment dosage 315 g/ha
Procedure, shortened: as §1

catchweed [25] = experiment: Test Example 4: weedkilling efficacy by foliar treatment; O: catchweed; conditions: treatment dosage 315 g/ha
Procedure, shortened: as §2

green foxtail [26] = experiment: Test Example 4: weedkilling efficacy by foliar treatment; E: green foxtail; conditions: treatment dosage 315 g/ha
Procedure, shortened: as §2

Indian mallow [27] = experiment: Test Example 3: weedkilling efficacy through soil treatment; K: Indian mallow; conditions: treatment dosage 315 g/ha
Procedure, shortened: as §1

black-grass [28] = experiment: Test Example 4: weedkilling efficacy by foliar treatment; H: black-grass; conditions: treatment dosage 315 g/ha
Procedure, shortened: as §2

fig-leafed goosefoot [29] = experiment: Test Example 4: weedkilling efficacy by foliar treatment; M: fig-leafed goosefoot; conditions: treatment dosage 315 g/ha
Procedure, shortened: as §2

crabgrass [30] = experiment: Test Example 4: weedkilling efficacy by foliar treatment; D: crabgrass; conditions: treatment dosage 315 g/ha
Procedure, shortened: as §2

soybean [31] = experiment: Test Example 4: foliar treatment, effect on crop; d: soybean; conditions: treatment dosage 315 g/ha
Procedure, shortened: as §2

oval-leafed pondweed [32] = experiment: Test Example 2: weedkilling efficacy, growth period weed treatment in the submerged state; C: oval-leafed pondweed; conditions: treatment dosage 252 g/ha
Procedure, shortened: as §3

beet [33] = experiment: Test Example 3: soil treatment, effect on crop; f: beet; conditions: treatment dosage 315 g/ha
Procedure, shortened: as §1

directly sown rice [34] = experiment: Test Example 3: soil treatment, effect on crop; b: directly sown rice; conditions: treatment dosage 315 g/ha
Procedure, shortened: as §1

directly sown rice [35] = experiment: Test Example 4: foliar treatment, effect on crop; b: directly sown rice; conditions: treatment dosage 315 g/ha
Procedure, shortened: as §2

redroot pigweed [36] = experiment: Test Example 3: weedkilling efficacy through soil treatment; L: redroot pigweed; conditions: treatment dosage 315 g/ha
Procedure, shortened: as §1

## CC1=C(c2ccccc2)C(=O)N(C(C)(C)C(=O)Nc2cc(Cl)cc(Br)n2)CO1 [B-2-36]
fig-leafed goosefoot [1]
  M (fig-leafed goosefoot) weedkilling efficacy grade: 3 (weed kill ratio 40% or more, less than 70%)
Corn [2]
  c (corn) effect on crop grade: 1 (weed kill ratio 5% or more, less than 20%)
Beet [3]
  f (beet) effect on crop grade: 3 (weed kill ratio 40% or more, less than 70%)
Bulrush [4]
  B (bulrush) weedkilling efficacy grade: 5 (weed kill ratio 90% or more, (practically complete withering))
oval-leafed pondweed [5]
  C (oval-leafed pondweed) weedkilling efficacy grade: 5 (weed kill ratio 90% or more, (practically complete withering))
Crabgrass [6]
  D (crabgrass) weedkilling efficacy grade: 5 (weed kill ratio 90% or more, (practically complete withering))
Indian mallow [7]
  K (Indian mallow) weedkilling efficacy grade: 4 (weed kill ratio 70% or more, less than 90%)
Wheat [8]
  e (wheat) effect on crop grade: 0 (weed kill ratio 5% or less (practically no effect))
Transplanted rice
  a (transplanted rice) effect on crop grade: 0 (weed kill ratio 5% or less (practically no effect))
Chickweed [9]
  N (chickweed) weedkilling efficacy grade: 4 (weed kill ratio 70% or more, less than 90%)
Italian ryegrass [10]
  I (Italian ryegrass) weedkilling efficacy grade: 0 (weed kill ratio 5% or less (practically no effect))
Green foxtail [11]
  E (green foxtail) weedkilling efficacy grade: 5 (weed kill ratio 90% or more, (practically complete withering))
Wild oat [12]
  G (wild oat) weedkilling efficacy grade: 1 (weed kill ratio 5% or more, less than 20%)
Bulrush [13]
  B (bulrush) weedkilling efficacy grade: 5 (weed kill ratio 90% or more, (practically complete withering))
Redroot pigweed [14]
  L (redroot pigweed) weedkilling efficacy grade: 3 (weed kill ratio 40% or more, less than 70%)
Barnyard grass [15]
  A (barnyard grass) weedkilling efficacy grade: 5 (weed kill ratio 90% or more, (practically complete withering))
Wheat [16]
  e (wheat) effect on crop grade: 0 (weed kill ratio 5% or less (practically no effect))
Corn [17]
  c (corn) effect on crop grade: 3 (weed kill ratio 40% or more, less than 70%)
Wild oat [18]
  G (wild oat) weedkilling efficacy grade: 1 (weed kill ratio 5% or more, less than 20%)
Catchweed [19]
  O (catchweed) weedkilling efficacy grade: 5 (weed kill ratio 90% or more, (practically complete withering))
Italian ryegrass [20]
  I (Italian ryegrass) weedkilling efficacy grade: 4 (weed kill ratio 70% or more, less than 90%)
Chickweed [21]
  N (chickweed) weedkilling efficacy grade: 4 (weed kill ratio 70% or more, less than 90%)
Soybean [22]
  d (soybean) effect on crop grade: 1 (weed kill ratio 5% or more, less than 20%)
Barnyard grass [23]
  A (barnyard grass) weedkilling efficacy grade: 5 (weed kill ratio 90% or more, (practically complete withering))
black-grass [24]
  H (black-grass) weedkilling efficacy grade: 5 (weed kill ratio 90% or more, (practically complete withering))
birds-eye speedwell
  P (birds-eye speedwell) weedkilling efficacy grade: 4 (weed kill ratio 70% or more, less than 90%)
Catchweed [25]
  O (catchweed) weedkilling efficacy grade: 4 (weed kill ratio 70% or more, less than 90%)
Green foxtail [26]
  E (green foxtail) weedkilling efficacy grade: 5 (weed kill ratio 90% or more, (practically complete withering))
Indian mallow [27]
  K (Indian mallow) weedkilling efficacy grade: 4 (weed kill ratio 70% or more, less than 90%)
black-grass [28]
  H (black-grass) weedkilling efficacy grade: 3 (weed kill ratio 40% or more, less than 70%)
fig-leafed goosefoot [29]
  M (fig-leafed goosefoot) weedkilling efficacy grade: 4 (weed kill ratio 70% or more, less than 90%)
Crabgrass [30]
  D (crabgrass) weedkilling efficacy grade: 5 (weed kill ratio 90% or more, (practically complete withering))
Soybean [31]
  d (soybean) effect on crop grade: 3 (weed kill ratio 40% or more, less than 70%)
oval-leafed pondweed [32]
  C (oval-leafed pondweed) weedkilling efficacy grade: 5 (weed kill ratio 90% or more, (practically complete withering))
Beet [33]
  f (beet) effect on crop grade: 3 (weed kill ratio 40% or more, less than 70%)
Directly sown rice [34]
  b (directly sown rice) effect on crop grade: 4 (weed kill ratio 70% or more, less than 90%)
Directly sown rice [35]
  b (directly sown rice) effect on crop grade: 4 (weed kill ratio 70% or more, less than 90%)
Redroot pigweed [36]
  L (redroot pigweed) weedkilling efficacy grade: 4 (weed kill ratio 70% or more, less than 90%)
